{
  "source": "ChEMBL document CHEMBL1201862",
  "about": "“PubChem BioAssay data set” (2004)",
  "key": {"[1]": {"target": "T1, Intestinal-type alkaline phosphatase (Homo sapiens, UniProt P09923)", "T1 sequence (P09923 whole entry)": "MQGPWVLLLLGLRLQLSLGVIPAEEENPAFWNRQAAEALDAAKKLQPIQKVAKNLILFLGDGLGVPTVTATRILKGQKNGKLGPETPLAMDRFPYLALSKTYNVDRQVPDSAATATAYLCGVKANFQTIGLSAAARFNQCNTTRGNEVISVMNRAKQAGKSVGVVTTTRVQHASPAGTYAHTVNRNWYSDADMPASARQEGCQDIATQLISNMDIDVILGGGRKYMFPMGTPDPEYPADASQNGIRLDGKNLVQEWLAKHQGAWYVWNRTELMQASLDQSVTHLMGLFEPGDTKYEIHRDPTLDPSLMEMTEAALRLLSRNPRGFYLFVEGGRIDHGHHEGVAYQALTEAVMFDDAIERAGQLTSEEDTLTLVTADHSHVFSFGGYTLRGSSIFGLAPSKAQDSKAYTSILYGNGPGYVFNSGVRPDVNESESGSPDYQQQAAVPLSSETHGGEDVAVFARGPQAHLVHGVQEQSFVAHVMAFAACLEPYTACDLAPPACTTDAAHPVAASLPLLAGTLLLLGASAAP", "test": "activation of human intestinal alkaline phosphatase – biochemical, luminescent, uHTS hits, set 2, dose response (AID 488817);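 also: potency of activators that raise enzyme activity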", "type": "functional"}, "H9c2": {"system": "H9c2", "test": "cells", "type": "functional, cell-based", "conditions": "Rattus norvegicus, H9c2, Myocardium"}, "[2]": {"target": "T1, Intestinal-type alkaline phosphatase", "test": "human intestinal alkaline phosphatase activators, dose response, biochemical, luminescence, uHTS hits (AID 463120)", "type": "functional"}, "[3]": {"target": "T2, Alkaline phosphatase, tissue-nonspecific isozyme (Homo sapiens, UniProt P05186)", "T2 sequence (P05186 whole entry)": "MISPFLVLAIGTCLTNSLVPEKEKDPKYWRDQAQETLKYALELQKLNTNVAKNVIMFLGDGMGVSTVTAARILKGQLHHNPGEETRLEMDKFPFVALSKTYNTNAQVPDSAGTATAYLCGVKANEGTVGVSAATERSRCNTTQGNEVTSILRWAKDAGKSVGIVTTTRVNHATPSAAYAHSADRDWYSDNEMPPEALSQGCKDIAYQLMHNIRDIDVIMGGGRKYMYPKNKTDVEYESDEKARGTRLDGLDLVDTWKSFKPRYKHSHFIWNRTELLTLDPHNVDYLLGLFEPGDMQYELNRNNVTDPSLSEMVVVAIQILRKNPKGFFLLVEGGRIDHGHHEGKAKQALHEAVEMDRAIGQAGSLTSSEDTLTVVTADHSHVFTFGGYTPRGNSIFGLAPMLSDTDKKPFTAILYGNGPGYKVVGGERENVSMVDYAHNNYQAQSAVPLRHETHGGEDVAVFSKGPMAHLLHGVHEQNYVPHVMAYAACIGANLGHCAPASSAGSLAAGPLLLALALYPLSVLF", "test": "activation of tissue-nonspecific alkaline phosphatase – biochemical, TNAP isozyme, human IAP uHTS hits, selectivity assay for human IAP activator project, dose response (AID 488886);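 also: potency of compounds raising TNAP activity as a selectivity check on IAP activators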", "type": "functional"}, "[4]": {"target": "Intestinal-type alkaline phosphatase (Mus musculus, UniProt P24822)", "sequence (P24822 whole entry)": "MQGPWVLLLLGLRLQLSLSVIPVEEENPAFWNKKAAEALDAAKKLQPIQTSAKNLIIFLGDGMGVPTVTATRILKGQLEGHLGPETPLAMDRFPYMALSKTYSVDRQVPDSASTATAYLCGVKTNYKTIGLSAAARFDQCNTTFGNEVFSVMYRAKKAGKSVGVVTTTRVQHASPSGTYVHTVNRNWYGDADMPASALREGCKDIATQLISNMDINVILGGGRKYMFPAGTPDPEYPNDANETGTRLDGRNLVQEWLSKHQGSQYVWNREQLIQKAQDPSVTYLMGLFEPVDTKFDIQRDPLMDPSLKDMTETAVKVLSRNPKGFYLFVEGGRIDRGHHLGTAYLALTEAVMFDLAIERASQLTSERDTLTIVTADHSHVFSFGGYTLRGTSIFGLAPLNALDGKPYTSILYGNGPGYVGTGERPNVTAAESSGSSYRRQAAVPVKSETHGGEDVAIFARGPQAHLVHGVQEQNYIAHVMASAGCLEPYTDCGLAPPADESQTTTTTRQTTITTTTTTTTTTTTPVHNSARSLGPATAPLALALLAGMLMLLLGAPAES", "test": "PubChem AID 488874", "type": "functional"}},
  "note": "The source made the active and inactive calls.",
  "data": [
    {"compound": "CCOCCCNC(=O)CCC(=O)NNc1nc2ccccc2c2nc(-c3ccccc3)nn12", "values": [
      {"measurement": "EC50", "setting": "[1]", "result": "15.2 µM (active)"},
      {"measurement": "IC50", "setting": "H9c2", "result": "> 79 µM (inactive)"},
      {"measurement": "EC50", "setting": "[2]", "result": "12.6 µM (active)"},
      {"measurement": "EC50", "setting": "[3]", "result": "17.7 µM (active)"},
      {"measurement": "IC50", "setting": "[4]", "result": "29.6 µM (active)"}
    ]}
  ]
}
